Patent US12507703B2, “Methods, devices and compositions for preserving human milk” (The Trustees of Princeton University, priority 2023, dated 2025)
Values joined by “and” are separate entries in the source; they are usually repeats but may differ in a detail not shown here. Identical values can stand only once.

test system: lipase; experiment: Lipase/lipolysis assay (EnzChek Lipase Substrate, quenched BODIPY-fatty acid conjugate) on stored human milk; also: test concentration or dose not given here

In order of rising “Lipase (RFU)” value:
1. OC[C@@H](O)[C@H](O)[C@H](O)[C@@H](O)CO [Dulcitol]  642.9411 RFU
2. O=C1c2ccc(O)cc2OCC1c1ccc(O)cc1 (centres unmarked) [Dihydrodaidzein]  682.5875 RFU
3. C[C@H](CC(=O)C[C@@H](C)[C@H]1C[C@H](O)[C@@]2(C)C3=C(C(=O)C[C@]12C)[C@@]1(C)CCC(=O)C(C)(C)[C@@H]1C[C@@H]3O)C(=O)O [Ganoderic acid A]  685.8921 RFU
4. O.O=C(O)c1cc(O)c(O)c(O)c1 [Gallic acid (hydrate)]  709.0148 RFU
5. COC(=O)[C@@]1(C)CC[C@]2(C(=O)O)CC[C@]3(C)C(=CC[C@@H]4[C@@]5(C)C[C@H](O)[C@H](O[C@@H]6OC[C@@H](O[C@@H]7O[C@H](CO)[C@@H](O)[C@H](O)[C@H]7O)[C@H](O)[C@H]6O)[C@@](C)(CO)[C@@H]5CC[C@]43C)[C@@H]2C1 [Esculentoside A]  755.0304 RFU
6. CCO.C[C@H]1c2cccc(O)c2C(O)=C2C(=O)[C@]3(O)C(O)=C(C(N)=O)C(=O)[C@@H](N(C)C)[C@@H]3[C@@H](O)[C@@H]21.C[C@H]1c2cccc(O)c2C(O)=C2C(=O)[C@]3(O)C(O)=C(C(N)=O)C(=O)[C@@H](N(C)C)[C@@H]3[C@@H](O)[C@@H]21.Cl.Cl.O [Doxycycline (hyclate)]  757.6717 RFU
7. C[C@]12CC[C@H](O)C[C@@H]1CC[C@@H]1[C@@H]2CC[C@]2(C)C(=O)CC[C@@H]12 [Epiandrosterone]  760.9004 RFU
8. COc1cc2oc(=O)ccc2c(OC)c1O [Fraxinol]  772.0122 RFU
9. C[C@@H]1C(=O)O[C@H]2C[C@@]34[C@H]5C[C@@H](C(C)(C)C)[C@]36[C@@H](OC(=O)[C@@H]6O)O[C@@]4(C(=O)O5)[C@]21O [Ginkgolide A]  772.6433 RFU
10. CC(=O)O[C@@H]1C(=O)C2=C(C(=O)C[C@H]3C(C)(C)C(=O)CC[C@]23C)[C@]2(C)C(=O)C[C@H]([C@H](C)CC(=O)CC(C)C(=O)O)[C@@]12C (some centres unmarked) [Ganoderic acid F]  791.7198 RFU
11. COc1cc2oc3cc(OC)c(OC)c(CC=C(C)C)c3c(=O)c2c(O)c1CC=C(C)C [Fuscaxanthone C]  819.3619 RFU
12. CSCC[C@H](NC=O)C(=O)O [For-Met-OH]  819.8295 RFU
13. C=C[C@@H](O)C#CC#C[C@@H](O)/C=C\CCCCCCC [Falcarindiol]  827.8455 RFU
14. CC(C)[C@@H](C)[C@@H](O)[C@H](O)[C@@H](C)[C@H]1CC[C@H]2[C@@H]3COC(=O)[C@H]4C[C@H](O)[C@H](O)C[C@]4(C)[C@H]3CC[C@]12C [Epibrassinolide]  830.2794 RFU
15. CC(C)=CCC[C@](C)(O[C@@H]1O[C@H](CO[C@@H]2O[C@H](CO)[C@@H](O)[C@H](O)[C@H]2O)[C@@H](O)[C@H](O)[C@H]1O)[C@H]1CC[C@]2(C)[C@@H]1[C@H](O)C[C@@H]1[C@@]3(C)CC[C@H](O[C@@H]4O[C@H](CO)[C@@H](O)[C@H](O)[C@H]4O[C@@H]4O[C@H](CO)[C@@H](O)[C@H](O)[C@H]4O)C(C)(C)[C@@H]3CC[C@]12C [Ginsenoside Rb1]  830.8489 RFU
16. CC(CC(=O)CC(C)(O)C1CC(=O)C2(C)C3=C(C(=O)CC12C)C1(C)CCC(=O)C(C)(C)C1CC3O)C(=O)O (centres unmarked) [Ganoderic acid N]  866.924 RFU
17. CCCCCCCCCCCC(=O)O[C@H](CC(=O)[O-])C[N+](C)(C)C [Dodecanoylcarnitine]  868.7983 RFU
18. C[C@]12CC[C@@H](O)C[C@H]1CC[C@@H]1[C@@H]2CC[C@]2(C)C(=O)CC[C@@H]12 [Etiocholanolone]  868.806 RFU
19. CC(C)=CCC[C@](C)(O[C@@H]1O[C@H](CO[C@@H]2OC[C@H](O)[C@H](O)[C@H]2O)[C@@H](O)[C@H](O)[C@H]1O)[C@H]1CC[C@]2(C)[C@@H]1[C@H](O)C[C@@H]1[C@@]3(C)CC[C@H](O)C(C)(C)[C@@H]3[C@@H](O)C[C@]12C [Ginsenoside F3]  878.0505 RFU
20. CC(CC(=O)C[C@@H](C)[C@H]1CC(=O)[C@@]2(C)C3=C(C(=O)C[C@]12C)[C@@]1(C)CC[C@H](O)C(C)(C)[C@@H]1C[C@@H]3O)C(=O)O (some centres unmarked) [Ganoderic acid B]  879.1619 RFU
21. CCCCCC1=C(C)CCC1=O [Dihydrojasmone]  884.3631 RFU
22. CC(C)(C(=O)O)C(=O)O [Dimethylmalonic acid]  890.7612 RFU
23. CCN(Cc1cccc(S(=O)(=O)[O-])c1)c1ccc(C(=C2C=CC(=[N+](CC)Cc3cccc(S(=O)(=O)[O-])c3)C=C2)c2ccc(O)cc2S(=O)(=O)[O-])cc1.[Na+].[Na+] [Fast Green FCF]  896.2144 RFU
24. CC(C)=CCc1c(O)cc2oc3cc(O)c(O)c(CCC(C)(C)O)c3c(=O)c2c1O [Garcinone C]  921.9256 RFU
25. CC(C)=CCC[C@](C)(O[C@@H]1O[C@H](CO)[C@@H](O)[C@H](O)[C@H]1O)[C@H]1CC[C@]2(C)[C@@H]1[C@H](O)C[C@@H]1[C@@]3(C)CC[C@H](O[C@@H]4O[C@H](CO)[C@@H](O)[C@H](O)[C@H]4O)C(C)(C)[C@@H]3CC[C@]12C [Ginsenoside F2]  926.1742 RFU
26. CC/C=C\C/C=C\C/C=C\C/C=C\C/C=C\CCCCCC(=O)O [Docosapentaenoic acid (22n-3)]  931.501 RFU
27. O=Cc1cc(O)c(O)c(O)c1 [Gallic aldehyde]  942.9255 RFU
28. C[C@@]12C[C@H](c3ccoc3)O[C@@]13C[C@H](OC3=O)[C@H]1[C@H]2C[C@@H]2C[C@H]1C(=O)O2 [Diosbulbin B]  951.5417 RFU
29. Cc1cc(O)c2c(c1)C(=O)c1cc(O)cc(O[C@@H]3O[C@H](CO)[C@@H](O)[C@H](O)[C@H]3O)c1C2=O [Emodin-1-O-β-D-glucopyranoside]  964.8621 RFU
30. C[C@H](CC(=O)C[C@](C)(O)[C@@H]1CC(=O)[C@@]2(C)C3=C(C(=O)C[C@]12C)[C@@]1(C)CC[C@H](O)C(C)(C)[C@@H]1C[C@@H]3O)C(=O)O [Ganoderic acid I]  969.9191 RFU
31. C/C(=C\CC[C@@H](C)[C@H]1CC[C@@]2(C)C3=CC[C@H]4C(C)(C)[C@@H](O)CC[C@]4(C)C3=CC[C@]12C)CO [Ganoderol B]  970.7443 RFU
32. CC(C)=C1C/C=C(\C)CC/C=C(\C)CC1=O [Germacrone]  974.0245 RFU
33. CC(C)=CCC[C@](C)(O[C@@H]1O[C@H](CO)[C@@H](O)[C@H](O)[C@H]1O)[C@H]1CC[C@]2(C)[C@@H]1[C@H](O)C[C@@H]1[C@@]3(C)CC[C@H](O)C(C)(C)[C@@H]3[C@@H](O)C[C@]12C [Ginsenoside F1]  975.1974 RFU
34. CCOC(=O)c1ccc(O)c(OC)c1 [Ethyl Vanillate]  981.4431 RFU
35. O=C1C[C@@H](c2ccc(O)c(O)c2)Oc2cc(O[C@@H]3O[C@H](CO)[C@@H](O)[C@H](O)[C@H]3O)cc(O)c21 [Eriodictyol-7-O-glucoside]  982.3042 RFU
36. OC[C@@H](O)[C@H](O)[C@H](O)[C@@H](O)CO [Dulcite]  1020.567 RFU
37. C/C(C=O)=C\CC[C@@H](C)[C@H]1CC[C@@]2(C)C3=CC[C@H]4C(C)(C)C(=O)CC[C@]4(C)C3=CC[C@]12C [Ganoderal A]  1025.687 RFU
38. O=CO [Formic Acid]  1027.958 RFU
39. CCO[C@@H]1O[C@H](C(=O)O)[C@@H](O)[C@H](O)[C@H]1O [Ethyl glucuronide]  1053.076 RFU
40. C[C@@H]1CC[C@@]2(OC1)O[C@H]1C[C@H]3[C@@H]4CC=C5C[C@@H](O[C@@H]6O[C@H](CO)[C@@H](O)[C@H](O)[C@H]6O)CC[C@]5(C)[C@H]4CC[C@]3(C)[C@H]1[C@@H]2C [Diosgenin glucoside]  1057.302 RFU
41. C/C(=C\CC[C@@H](C)[C@H]1CC[C@@]2(C)C3=C(CC[C@]12C)[C@@]1(C)CCC(=O)C(C)(C)[C@@H]1CC3=O)C(=O)O [Ganoderic acid DM]  1077.482 RFU
42. CC(C)=CCc1c(O)cc2oc3cc(O)c(O)c(CC=C(C)C)c3c(=O)c2c1O [Gamma-Mangostin]  1083.745 RFU
43. CC1C(=O)OC2C(O)C34C5CC(C(C)(C)C)C36C(OC(=O)C6O)OC4(C(=O)O5)C12O (centres unmarked) [Ginkgolide B]  1094.796 RFU
44. OC[C@H]1O[C@@](CO)(O[C@H]2O[C@H](CO[C@@H]3O[C@H](CO)[C@@H](O)[C@H](O)[C@H]3O)[C@@H](O)[C@H](O)[C@H]2O)[C@@H](O)[C@@H]1O [Gentianose]  1100.387 RFU
45. O=P([O-])([O-])O[C@H]1O[C@H](CO)[C@H](O)[C@H](O)[C@H]1O.[K+].[K+] [Galactose 1-phosphate Potassium salt]  1112.021 RFU
46. O=C1O[C@H]([C@H](O)CO)C(O)=C1O [Erythorbic acid]  1131.679 RFU
47. COc1cc(/C=C/C(=O)CC(=O)CCc2ccc(O)c(OC)c2)ccc1O [Dihydrocurcumin]  1140.2 RFU
48. Cc1cc(O[C@@H]2O[C@H](CO)[C@@H](O)[C@H](O)[C@H]2O)c2c(c1)C(=O)c1cc(O)cc(O)c1C2=O [Emodin-8-glucoside]  1174.326 RFU
49. COC(=O)[C@]1(C)CC[C@]2(C(=O)O[C@@H]3O[C@H](CO)[C@@H](O)[C@H](O)[C@H]3O)CC[C@]3(C)C(=CC[C@@H]4[C@@]5(C)C[C@H](O)[C@H](O[C@@H]6OC[C@@H](O[C@@H]7O[C@H](CO)[C@@H](O)[C@H](O)[C@H]7O)[C@H](O)[C@H]6O)[C@@](C)(CO)C5CC[C@]43C)[C@H]2C1 (some centres unmarked) [Esculentoside H]  1175.483 RFU
50. O=c1ccc2cc(O[C@@H]3O[C@H](CO)[C@@H](O)[C@H](O)[C@H]3O)c(O)cc2o1 [Esculin]  1207.652 RFU
51. O=P([O-])([O-])OP(=O)(O)O.[Na+].[Na+] [Disodium pyrophosphate]  1213.966 RFU

With `CC1(C)[C@@H](O[C@H]2O[C@H](C(=O)[O-])[C@@H](O)[C@H](O)[C@H]2O[C@@H]2O[C@H](C(=O)[O-])[C@@H](O)[C@H](O)[C@H]2O)CC[C@]2(C)[C@H]3C(=O)C=C4[C@@H]5C[C@@](C)(C(=O)O)CC[C@]5(C)CC[C@@]4(C)[C@]3(C)CC[C@@H]12.[K+].[K+]` [Dipotassium glycyrrhizinate] the “Lipase (RFU)” value was 813.8172 RFU and 1090.475 RFU.
`C=CCc1ccc(OC)cc1` [Estragole] was tested, and the “Lipase (RFU)” value was 655.6447 RFU and 832.8206 RFU.
